Experimental data from ChEMBL document CHEMBL5576037, “Discovery of the first ataxia telangiectasia and Rad3-related (ATR) degraders for cancer treatment” (Eur J Med Chem, 2024).
Activity calls are given as the source filed them. The rule behind the calls is not given here.

How the values were obtained:
HCT-116 = assay: Antiproliferative activity against human HCT-116 cells expressing wildtype ATM incubated for 72 hrs by CCK8 assay; assay type: functional, cell-based; details: HCT-116, 72 h
LoVo [1] = assay: Antiproliferative activity against ATM deficient human LoVo cells incubated for 72 hrs by CCK8 assay; assay type: functional, cell-based
LoVo [2] = assay: Induction of DNA damage in human LoVo cells assessed as increase in gammaH2AX expression at 1 uM incubated for 72 hrs by DAPI staining based immunofluorescence analysis; assay type: functional, cell-based
LoVo [3] = assay: Induction of apoptosis in human LoVo cells assessed as apoptotic rate at 1 uM incubated for 48 hrs by Annexin V-FITC/PI staining based flow cytometric analysis (reference value: 5.32 %); assay type: functional
LoVo [4] = assay: Cell cycle arrest in human LoVo cells assessed as accumulation of cells at G0/G1 phase at 1 uM incubated for 72 hrs by PI staining based flow cytometric analysis (reference value: 52.3 %); assay type: functional
LoVo [5] = assay: Cell cycle arrest in human LoVo cells assessed as accumulation of cells at S phase at 1 uM incubated for 72 hrs by PI staining based flow cytometric analysis (reference value: 25.5 %); assay type: functional
LoVo [6] = assay: Cell cycle arrest in human LoVo cells assessed as accumulation of cells at G2/M phase at 1 uM incubated for 72 hrs by PI staining based flow cytometric analysis (reference value: 22.2 %); assay type: functional
LoVo [7] = assay: Synergistic antitumor activity against human LoVo cells xenografted in BALB/c nude mouse assessed as tumor growth inhibition at 12.5 mg/kg, po administered once daily for 15 days in presence of cisplatin relative to control; assay type: functional; details: 360 h, time 15 day, read-out: TGI
[8] = target: Serine/threonine-protein kinase ATR (Homo sapiens, UniProt Q13535); assay: Inhibition of ATR (unknown origin)
Serine/threonine-protein kinase ATR, sequence (Q13535 whole entry): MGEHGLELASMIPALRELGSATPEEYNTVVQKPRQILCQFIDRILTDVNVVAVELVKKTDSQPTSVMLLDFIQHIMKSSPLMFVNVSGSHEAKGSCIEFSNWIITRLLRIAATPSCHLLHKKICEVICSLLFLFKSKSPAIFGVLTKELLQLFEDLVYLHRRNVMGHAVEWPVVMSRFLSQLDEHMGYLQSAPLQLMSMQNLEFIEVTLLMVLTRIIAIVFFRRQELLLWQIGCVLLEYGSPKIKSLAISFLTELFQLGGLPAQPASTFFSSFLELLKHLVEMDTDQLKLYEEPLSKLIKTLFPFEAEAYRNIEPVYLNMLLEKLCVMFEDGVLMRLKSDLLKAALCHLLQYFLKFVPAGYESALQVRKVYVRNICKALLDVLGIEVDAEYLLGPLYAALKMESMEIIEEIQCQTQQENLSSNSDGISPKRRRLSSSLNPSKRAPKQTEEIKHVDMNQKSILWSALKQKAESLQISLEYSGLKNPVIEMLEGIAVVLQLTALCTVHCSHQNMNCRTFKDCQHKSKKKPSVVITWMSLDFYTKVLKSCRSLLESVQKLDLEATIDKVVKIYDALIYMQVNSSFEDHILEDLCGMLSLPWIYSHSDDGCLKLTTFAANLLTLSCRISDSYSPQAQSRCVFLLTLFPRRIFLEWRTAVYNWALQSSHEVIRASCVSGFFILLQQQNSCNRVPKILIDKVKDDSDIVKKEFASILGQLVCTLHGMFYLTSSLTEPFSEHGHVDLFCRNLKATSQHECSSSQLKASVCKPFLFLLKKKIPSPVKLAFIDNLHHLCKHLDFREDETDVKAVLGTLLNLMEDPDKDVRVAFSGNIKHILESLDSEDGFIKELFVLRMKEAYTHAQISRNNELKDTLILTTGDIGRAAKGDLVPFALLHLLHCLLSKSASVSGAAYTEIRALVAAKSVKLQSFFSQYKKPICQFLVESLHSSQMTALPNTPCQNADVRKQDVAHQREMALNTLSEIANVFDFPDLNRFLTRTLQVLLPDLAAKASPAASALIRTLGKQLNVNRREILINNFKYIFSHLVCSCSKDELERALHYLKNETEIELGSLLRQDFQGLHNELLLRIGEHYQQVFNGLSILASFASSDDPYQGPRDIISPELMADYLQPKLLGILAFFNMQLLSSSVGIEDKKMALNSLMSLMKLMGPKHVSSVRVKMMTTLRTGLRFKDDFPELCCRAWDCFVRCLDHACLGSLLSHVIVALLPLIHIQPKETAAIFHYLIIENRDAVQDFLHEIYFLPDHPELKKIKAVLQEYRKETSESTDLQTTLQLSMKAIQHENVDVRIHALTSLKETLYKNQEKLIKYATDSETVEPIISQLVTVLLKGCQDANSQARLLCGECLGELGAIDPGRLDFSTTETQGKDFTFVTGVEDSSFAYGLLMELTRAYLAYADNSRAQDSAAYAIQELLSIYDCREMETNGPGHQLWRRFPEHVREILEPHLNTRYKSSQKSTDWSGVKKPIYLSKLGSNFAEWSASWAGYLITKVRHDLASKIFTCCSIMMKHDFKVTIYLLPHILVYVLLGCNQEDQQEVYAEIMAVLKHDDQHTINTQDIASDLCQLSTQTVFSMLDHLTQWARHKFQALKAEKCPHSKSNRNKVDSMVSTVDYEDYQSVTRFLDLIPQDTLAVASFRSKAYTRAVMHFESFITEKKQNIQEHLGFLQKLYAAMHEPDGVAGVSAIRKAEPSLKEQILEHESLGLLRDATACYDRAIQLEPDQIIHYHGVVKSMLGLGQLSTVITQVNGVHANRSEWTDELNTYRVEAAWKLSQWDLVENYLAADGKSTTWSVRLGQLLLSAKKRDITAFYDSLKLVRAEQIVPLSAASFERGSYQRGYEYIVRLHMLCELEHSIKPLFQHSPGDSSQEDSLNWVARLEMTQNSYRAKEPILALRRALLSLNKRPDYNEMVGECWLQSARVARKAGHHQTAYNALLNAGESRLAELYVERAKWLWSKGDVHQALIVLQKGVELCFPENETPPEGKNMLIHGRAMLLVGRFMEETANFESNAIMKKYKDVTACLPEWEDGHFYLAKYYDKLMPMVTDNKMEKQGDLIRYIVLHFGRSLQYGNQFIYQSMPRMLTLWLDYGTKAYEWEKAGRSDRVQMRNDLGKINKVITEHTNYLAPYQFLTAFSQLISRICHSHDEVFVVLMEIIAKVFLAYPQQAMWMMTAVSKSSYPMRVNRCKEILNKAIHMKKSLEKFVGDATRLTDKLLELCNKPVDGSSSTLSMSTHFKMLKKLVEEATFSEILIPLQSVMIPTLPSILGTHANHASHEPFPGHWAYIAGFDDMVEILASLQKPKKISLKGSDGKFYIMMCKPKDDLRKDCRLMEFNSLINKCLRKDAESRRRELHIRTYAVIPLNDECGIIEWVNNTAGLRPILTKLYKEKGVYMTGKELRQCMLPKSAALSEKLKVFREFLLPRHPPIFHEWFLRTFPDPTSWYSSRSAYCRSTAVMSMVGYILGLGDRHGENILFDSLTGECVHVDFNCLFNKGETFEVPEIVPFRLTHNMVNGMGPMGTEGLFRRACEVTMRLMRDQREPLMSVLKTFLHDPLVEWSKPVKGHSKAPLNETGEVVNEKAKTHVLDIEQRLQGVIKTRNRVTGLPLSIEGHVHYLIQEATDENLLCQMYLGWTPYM

[9] = Selectivity ratio for inhibition of ATM (unknown origin) to inhibition of ATR (unknown origin)
[10] = Selectivity ratio for inhibition of PI3K (unknown origin) to inhibition of ATR (unknown origin)
[11] = target: Protein cereblon/Serine/threonine-protein kinase ATR (Homo sapiens, UniProt Q13535+Q96SW2); assay: PROTAC activity at CRBN/ATR in human LoVo cells assessed as induction of ATR degradation; assay type: cell-based
Protein cereblon/Serine/threonine-protein kinase ATR, sequence (Q13535 whole entry, looked up): as the sequence (Q13535 whole entry) above
Protein cereblon/Serine/threonine-protein kinase ATR, sequence (Q96SW2 whole entry, looked up): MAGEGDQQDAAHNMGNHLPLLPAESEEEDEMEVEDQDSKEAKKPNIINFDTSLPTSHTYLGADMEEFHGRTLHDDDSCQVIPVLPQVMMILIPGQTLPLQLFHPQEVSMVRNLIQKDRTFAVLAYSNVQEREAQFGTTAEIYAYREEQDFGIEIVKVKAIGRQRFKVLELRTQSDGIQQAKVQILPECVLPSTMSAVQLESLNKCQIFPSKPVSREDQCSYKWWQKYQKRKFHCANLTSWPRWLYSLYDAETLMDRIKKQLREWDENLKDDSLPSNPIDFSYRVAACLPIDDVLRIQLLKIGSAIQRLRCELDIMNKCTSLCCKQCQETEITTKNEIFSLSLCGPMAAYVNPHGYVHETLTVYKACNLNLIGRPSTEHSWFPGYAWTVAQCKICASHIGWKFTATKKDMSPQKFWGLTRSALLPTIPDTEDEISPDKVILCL

| Structure (SMILES) | IC50 (HCT-116) [µM] | IC50 (LoVo [1]) [µM] | also measured |
| --- | --- | --- | --- |
| C[C@@H]1COCCN1c1cc(C2([S@@](C)(=O)=NC(=O)CCc3cn(CCCCCCCCCC(=O)Nc4cccc5c4C(=O)N(C4CCC(=O)NC4=O)C5=O)nn3)CC2)nc(-c2ccnc3[nH]ccc23)n1 (stereo not given in full) | > 50 | 21.2 |  |
| Nc1cccc2c1C(=O)N(C1CCC(=O)NC1=O)C2=O (stereo not given) [POMALIDOMIDE] | > 50 | > 50 |  |
| Cc1ncsc1-c1ccc(CNC(=O)[C@@H]2C[C@@H](O)CN2C(=O)[C@@H](NC(=O)CCCCn2cc(CCC(=O)N=[S@](C)(=O)C3(c4cc(N5CCOC[C@H]5C)nc(-c5ccnc6[nH]ccc56)n4)CC3)nn2)C(C)(C)C)cc1 | > 50 | > 50 |  |
| C[C@@H]1COCCN1c1cc(C2([S@@](C)(=O)=NC(=O)CCc3cn(CCOCCOCCOCC(=O)Nc4cccc5c4C(=O)N(C4CCC(=O)NC4=O)C5=O)nn3)CC2)nc(-c2ccnc3[nH]ccc23)n1 (stereo not given in full) | > 50 | > 50 |  |
| Nc1nn2cc(F)cnc2c1C(=O)Nc1cncc(F)c1N1CCC(C(=O)N2CCN(C3COC3)CC2)CC1 [M4344] |  |  | IC50 [8]: 0.00015 µM; Selectivity ratio [9]: > 50; Selectivity ratio [10]: > 50 |
| Cc1ncsc1-c1ccc(CNC(=O)[C@@H]2C[C@@H](O)CN2C(=O)[C@@H](N)C(C)(C)C)cc1 | > 50 | > 50 |  |
| C[C@@H]1COCCN1c1cc(C2([S@@](C)(=O)=NC(=O)CCc3cn(CCCCCCCCCCC(=O)Nc4cccc5c4C(=O)N(C4CCC(=O)NC4=O)C5=O)nn3)CC2)nc(-c2ccnc3[nH]ccc23)n1 (stereo not given in full) | > 50 | 16.4 |  |
| CCN1C(=O)CCC(N2C(=O)c3cccc(NC(=O)CCCCCCCCCn4cc(CCC(=O)N=[S@](C)(=O)C5(c6cc(N7CCOC[C@H]7C)nc(-c7ccnc8[nH]ccc78)n6)CC5)nn4)c3C2=O)C1=O (stereo not given in full) | > 50 | > 50 | Activity [11]: inactive |
| Cc1ncsc1-c1ccc(CNC(=O)[C@@H]2C[C@@H](O)CN2C(=O)[C@@H](NC(=O)CCCCCCCCCCn2cc(CCC(=O)N=[S@](C)(=O)C3(c4cc(N5CCOC[C@H]5C)nc(-c5ccnc6[nH]ccc56)n4)CC3)nn2)C(C)(C)C)cc1 | > 50 | > 50 |  |
| Cc1ncsc1-c1ccc(CNC(=O)[C@@H]2C[C@@H](O)CN2C(=O)[C@@H](NC(=O)CCCCCCCn2cc(CCC(=O)N=[S@](C)(=O)C3(c4cc(N5CCOC[C@H]5C)nc(-c5ccnc6[nH]ccc56)n4)CC3)nn2)C(C)(C)C)cc1 | > 50 | > 50 |  |

Second part, led by results:

| IC50 (HCT-116) [µM] | IC50 (LoVo [1]) [µM] | Structure (SMILES) | also measured |
| --- | --- | --- | --- |
| 3.62 | 0.83 | C[C@@H]1COCCN1c1cc(C2([S@](C)(=N)=O)CC2)nc(-c2cc[nH]c3nccc2-3)n1 [CERALASERTIB] | Activity (LoVo [2]): Active; Activity (LoVo [3]): 42%; Activity (LoVo [4]): 71.8%; Activity (LoVo [5]): 16.7%; Activity (LoVo [6]): 11.5%; inhibition in vivo at 12.5 mg/kg (LoVo [7]): 52.7% |
| > 50 | 26.7 | C[C@@H]1COCCN1c1cc(C2([S@@](C)(=O)=NC(=O)CCc3cn(CCOCCOCC(=O)Nc4cccc5c4C(=O)N(C4CCC(=O)NC4=O)C5=O)nn3)CC2)nc(-c2ccnc3[nH]ccc23)n1 (stereo not given in full) |  |
| > 50 | 28.4 | C[C@@H]1COCCN1c1cc(C2([S@@](C)(=O)=NC(=O)CCc3cn(CCCCC(=O)Nc4cccc5c4C(=O)N(C4CCC(=O)NC4=O)C5=O)nn3)CC2)nc(-c2ccnc3[nH]ccc23)n1 (stereo not given in full) |  |
| > 50 | 23.3 | C[C@@H]1COCCN1c1cc(C2([S@@](C)(=O)=NC(=O)CCc3cn(CCCCCC(=O)Nc4cccc5c4C(=O)N(C4CCC(=O)NC4=O)C5=O)nn3)CC2)nc(-c2ccnc3[nH]ccc23)n1 (stereo not given in full) |  |
| > 50 | 32.4 | C[C@@H]1COCCN1c1cc(C2([S@@](C)(=O)=NC(=O)CCc3cn(CCCCCCCCC(=O)Nc4cccc5c4C(=O)N(C4CCC(=O)NC4=O)C5=O)nn3)CC2)nc(-c2ccnc3[nH]ccc23)n1 (stereo not given in full) |  |
| > 50 | 20 | C[C@@H]1COCCN1c1cc(C2([S@@](C)(=O)=NC(=O)CCc3cn(CCCCCCC(=O)Nc4cccc5c4C(=O)N(C4CCC(=O)NC4=O)C5=O)nn3)CC2)nc(-c2ccnc3[nH]ccc23)n1 (stereo not given in full) |  |
